Source: the NIST ThermoML archive (doi:10.1016/j.fluid.2009.08.017)
Numbers after ± are expanded uncertainties.

Test: activity coefficient (dimensionless); of the first substance listed, at infinite dilution; xn = mol fraction of the nth substance listed
Conditions: 101 kPa, Liquid, Chromatography, x1 = 0

Structure (SMILES)	activity coefficient (298.15 K)	activity coefficient (308.15 K)	activity coefficient (318.15 K)	activity coefficient (328.15 K)	activity coefficient (338.15 K)	activity coefficient (348.15 K)	activity coefficient (358.15 K)	activity coefficient (368.15 K)
Cc1ccccc1 [toluene] + CCCCCCOCn1cc[n+](C)c1.O=S(=O)([N-]S(=O)(=O)C(F)(F)F)C(F)(F)F	1.05 ± 0.066	1.06 ± 0.067	1.07 ± 0.068	1.08 ± 0.068	1.09 ± 0.069	1.1 ± 0.069	1.1 ± 0.07	1.11 ± 0.07
CC(C)=O [acetone] + CCCCCCOCn1cc[n+](C)c1.O=S(=O)([N-]S(=O)(=O)C(F)(F)F)C(F)(F)F	0.3 ± 0.031	0.308 ± 0.031	0.315 ± 0.031	0.322 ± 0.031	0.328 ± 0.032	0.336 ± 0.032	0.342 ± 0.032	0.348 ± 0.032
C1CCOC1 [tetrahydrofuran] + CCCCCCOCn1cc[n+](C)c1.O=S(=O)([N-]S(=O)(=O)C(F)(F)F)C(F)(F)F	0.424 ± 0.035	0.438 ± 0.035	0.452 ± 0.036	0.466 ± 0.036	0.479 ± 0.037	0.491 ± 0.037	0.504 ± 0.038	0.515 ± 0.038
C#CCCCCC [1-heptyne] + CCCCCCOCn1cc[n+](C)c1.O=S(=O)([N-]S(=O)(=O)C(F)(F)F)C(F)(F)F	2.44 ± 0.17	2.45 ± 0.17	2.45 ± 0.17	2.46 ± 0.17	2.47 ± 0.17	2.48 ± 0.17	2.48 ± 0.17	2.49 ± 0.17
C1CCCCCC1 [cycloheptane] + CCCCCCOCn1cc[n+](C)c1.O=S(=O)([N-]S(=O)(=O)C(F)(F)F)C(F)(F)F	6.51 ± 0.44	6.15 ± 0.42	5.8 ± 0.4	5.49 ± 0.37	5.23 ± 0.36	5.02 ± 0.34	4.79 ± 0.33	4.6 ± 0.31
CCCCCC [hexane] + CCCCCCOCn1cc[n+](COCCCCCC)c1.O=S(=O)([N-]S(=O)(=O)C(F)(F)F)C(F)(F)F	3.22 ± 0.22	3.13 ± 0.21	3.04 ± 0.21	2.97 ± 0.2	2.9 ± 0.2	2.83 ± 0.19	2.77 ± 0.19	2.72 ± 0.19
